Test results published in patent EP3967319A1, “COMPOSITION FOR SKIN PROTECTION COMPRISING KAEMPFEROL SACCHARIDES COMPOUNDS” (Amorepacific Corporation, priority 2020, dated 2022).

Experiments:
[1] = system: senescence marker SA-beta-Gal; assay: Expression of senescence marker SA-beta gal in senescent skin cells (cellular senescence assay kit); format: cell-based, human; conditions: senescent NHDF (passage 37), 3 µM for 7 days; control 78± 5.2
Protocol: Normal human dermal fibroblasts (NHDF; Lonza, Switzerland) were cultured in Dulbecco's modified Eagle's medium (DMEM, GIBCO 1210-0038) containing 10% fetal bovine serum, in a 5% CO2 incubator at 37 °C. Cells at passages 6-9 were denoted as young cells, and they were subcultured by 1:5 subculturing until passage 37 to obtain senescent dermal fibroblasts. The senescent skin cells of (1) were treated with DMSO, the compounds repressed by Chemical Formula 1, 2, 3, 4, 5, 6, 7 and 8, kaempferol 3-O-β-rutinoside (Chemical Formula 9) or kaempferol 7-O-β-D-glucopyranoside (Chemical Formula 10) at 3 µM for 7 days. [drawing 30] [drawing 31] On day 8, the cells were washed with PBS and stained with a fixative and a stain provided together with a cellular senescence assay kit (Cell Biolabs, Inc., San Diego, CA, USA) at 37 °C for 16 hours. On the next day, after washing with PBS and applying a 20% glycerol solution, the number of cells stained green was counted and the degree of expression of the senescence marker SA-beta-Gal was evaluated.

MMP-1 = MMP-1 ELISA assay in UVB-irradiated HDF cells; format: cell-based, human; conditions: UVB 15 mJ/cm^2, 2 µM or 3 µM, 48 hours, compared to Chemical Formulas 5 and 7 or retinoic acid (RA), FIG. 3
Protocol: HDF cells were seeded onto a 24-well plate at a concentration of 2.5x10^4 cells/well and were culture for 24 hours under a cell culturing condition. Then, the cells were cultured for 48 hours after treating with a test substance diluted in FBS-free DMEM. After washing with Dulbecco's phosphate-buffered saline (DPBS) and irradiating UVB (15 mJ/cm^2), the medium was replaced with the test substance (2 µM or 3 µM) diluted in DMEM and the cells were cultured for 48 hours. Then, the supernatant was recovered and the amount of MMP-1 was measured using a human total MMP-1 ELISA kit (R&D Systems).

[2] = system: Human epidermis models (EpiDerm™ EPI-201); assay: Improvement of skin barrier in 3D organotypic skin epidermis (immunostaining of barrier markers); format: cell-based; conditions: old donor epidermis model, 3 µM for 4 days
Protocol: Human epidermis models (EpiDerm™ EPI-201; […] The human epidermis model derived from the old donor was treated with the kaempferol tetrasaccharide represented by Chemical Formula 1 at 3 µM for 4 days. Paraffin blocks were prepared after fixing with 10% neutral buffered formalin.
After reacting with anti-KRT 10 (Biolegend, San Diego, CA), anti-FLG (Novus Biologicals, Centennial CO, USA), anti-Involucrin and anti-Ki67 (Abcam) antibodies, the expression of the antibodies was analyzed using a microscope. Specifically, the epidermal tissue derived from the young donor (Young) and the epidermal tissue derived from the old donor (Old) were treated with the test substance and then stained with the antibodies described above. The result is shown in FIG. 4, FIGS. 5A-5B and FIGS. 6A-6C. FIGS. 5A-5B and FIGS. 6A-6C show the result of quantifying the result of FIG. 4.

[3] = system: 3D skin models (skin equivalents); assay: 3D skin models (skin equivalents) from senescent NHDFs, histology and immunohistochemistry; format: cell-based, human; conditions: BX-795 100 nM, FIGS. 10A-10B
Protocol: (§1) 3D skin models (skin equivalents) were prepared from young NHDFs (PDL 12) or senescent NHDFs induced into senescence by doxorubicin and IGF-1 or repeated plating (replicative senescence, PDL 57) and were exposed to DMSO or BX795. The treatment concentrations are as follows: doxorubicin ([…]), IGF-1 (100 ng/mL), BX-795 (100 nM).
The indicated proteins were detected by immunohistochemistry. The results are from three representative experiments. Scale bar = 50 µm.
Paraffin samples were dewaxed in xylene and rehydrated through a descending ethanol to water series (3 minutes per solution). […] The sections were then incubated with water/1% H2O2 for 30 minutes to block endogenous peroxidase, rinsed with water and PBS/0.05% Tween 20 for 5 minutes, and incubated with PBS/10% goat serum (Dako, Glostrup, Denmark) for 20 minutes before exposure to the following antibodies overnight at 4 °C; Primary antibodies are: anti-KRT 10 (Biolegend, San Diego, CA), anti-FLG (Abcam), anti-MMP-1(Abcam) and anti-Ki67 (Abcam). […]
Finally, the sections were dehydrated in graded ethanol, cleared in xylene and mounted in Cytoseal 60 (Thermo Scientific, Waltham, MA). […] Tissue sections were incubated with COL17A1 (Abcam) and laminin-5 (Santa Cruz Biotechnology) in Dako fluorescence mounting medium (Dako) at 4 °C overnight. […]

[4] = system: GRO, GROα, IL-6, IL-8, MCP-1 to 3 and RANTES; assay: Cytokine antibody array of conditioned media of skin equivalents (SASP); format: cell-based, human; conditions: skin equivalents from either type of senescent NHDFs, BX-795 100 nM, versus vehicle-treated; FIGS. 11A-11B
Protocol: as §1, with “PDK1 inhibition inhibits SASP in skin equivalents. 3D” for “3D”, “57),” for “57)”
Mean ± SD (n = 3), ***P < 0.001 compared to DMSO control senescent cells by one-way analysis of variance.

| Molecule | degree of expression of the senescence marker SA-beta-Gal (number of cells stained green) [1] | effect of inhibiting MMP-1 expression (MMP-1) | also measured |
| --- | --- | --- | --- |
| C[C@@H]1O[C@@H](OC[C@H]2O[C@@H](Oc3c(-c4ccc(O)cc4)oc4cc(O)cc(O)c4c3=O)[C@H](O[C@@H]3O[C@H](CO)[C@@H](O)[C@H](O)[C@H]3O)[C@@H](O)[C@H]2O)[C@H](O)[C@H](O[C@@H]2OC[C@@H](O)[C@H](O)[C@H]2O)[C@H]1O [Chemical Formula 3, kaempferol-3-O-β-D-xylopyranosyl-(1→3)-O-α-L-rhamnopyranosyl-(1→6)-O-β-D-glucopyranosyl-(1→2)-O-β-D-galactopyranoside] | 42 ± 9.7 | superior effect of inhibiting MMP-1 expression |  |
| C[C@@H]1O[C@@H](OC[C@H]2O[C@@H](Oc3c(-c4ccc(O)cc4)oc4cc(O)cc(O)c4c3=O)[C@H](O[C@@H]3OC[C@@H](O)[C@H](O)[C@H]3O)[C@@H](O)[C@@H]2O)[C@H](O)[C@H](O[C@@H]2OC[C@@H](O)[C@H](O)[C@H]2O)[C@H]1O [Chemical Formula 2, kaempferol-3-O-β-D-xylopyranosyl-(1→3)-O-α-L-rhamnopyranosyl-(1→6)-O-β-D-xylopyranosyl-(1→2)-O-β-D-glucopyranoside] | 40 ± 10.4 |  |  |
| C[C@@H]1O[C@@H](OC[C@H]2O[C@@H](Oc3c(-c4ccc(O)cc4)oc4cc(O)cc(O)c4c3=O)[C@H](O[C@@H]3OC[C@@H](O)[C@H](O)[C@H]3O)[C@@H](O)[C@H]2O)[C@H](O)[C@H](O[C@@H]2OC[C@@H](O)[C@H](O)[C@H]2O)[C@H]1O [Chemical Formula 1, kaempferol-3-O-β-D-xylopyranosyl-(1→3)-O-α-L-rhamnopyranosyl-(1→6)-O-β-D-xylopyranosyl-(1→2)-O-β-D-galactopyranoside] | 38 ± 10.4 | superior effect of inhibiting MMP-1 expression | epidermal thickness ([2]; FIG. 5A): recovered to levels comparable to those of the young epidermal tissue; expression of the regeneration marker (KI67) ([2]; FIG. 5B): recovered to levels comparable to those of the young epidermal tissue; barrier function (KRT10, FLG, INV) ([2]; FIGS. 6A-6C): recovered to levels comparable to those of the young epidermal tissue |
| kaempferol-3-O-β-D-xylopyranosyl-(1→3)-O-α-L-rhamnopyranosyl-(1→6)-O-β-D-glucopyranosyl-(1→2)-O-β-D-glucopyranoside [Chemical Formula 4] | 37 ± 9.1 | superior effect of inhibiting MMP-1 expression |  |
| O=C(NCCCNc1nc(Nc2cccc(NC(=O)N3CCCC3)c2)ncc1I)c1cccs1 [BX795] |  |  | epidermal thickness in the skin equivalents ([3]; skin equivalents from senescence-induced NHDFs): preserved epidermal thickness; proliferation marker Ki-67 in the epidermis of the skin equivalents ([3]; skin equivalents from senescent NHDFs): markedly increased; GRO, GROα, IL-6, IL-8, MCP-1 to 3 and RANTES in the conditioned medium [4]: less |
| C[C@@H]1O[C@@H](OC[C@H]2O[C@@H](Oc3c(-c4ccc(O)cc4)oc4cc(O)cc(O)c4c3=O)[C@H](O)[C@@H](O)[C@@H]2O)[C@H](O)[C@H](O)[C@H]1O [Kaempferol 3-O-β-rutinoside, kaempferol 3-O-β-rutinoside, reference compound] | 81 ± 11.3 |  |  |
| O=c1c(O)c(-c2ccc(O)cc2)oc2cc(O)cc(O)c12 [Kaempferol] | 80 ± 12.1 |  |  |
| O=c1c(O)c(-c2ccc(O)cc2)oc2cc(O[C@@H]3O[C@H](CO)[C@@H](O)[C@H](O)[C@H]3O)cc(O)c12 [Kaempferol 7-0-β-D-glucopyranoside, kaempferol 7-O-β-D-glucopyranoside, reference compound] | 79± 9.9 |  |  |
